Laboratory results taken from ChEMBL document CHEMBL1201862, “PubChem BioAssay data set” (2004).
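Protocol summary: plate cells (96-well), add compound at 5 concentrations, incubate 48 h, interpolate endpoints linearly. GI50: concentration for 50% inhibition of growth.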 Active and inactive are the calls of the source. Cut-off read from the data, not from the text of the source: active = GI50 up to about 1.1 µM and inactive = higher.

Experiments:
Experiment in all cases: growth of human tumour cells (NCI), 48 h
A498 = tested on: A498
ACHN = tested on: ACHN
COLO 205 = tested on: COLO 205
HCC 2998 = tested on: HCC 2998
HCT-116 = tested on: HCT-116
HOP-92 = tested on: HOP-92
MCF7 = tested on: MCF7
MDA-MB-231 = tested on: MDA-MB-231
MDA-MB-435 = tested on: MDA-MB-435
NCI-H226 = tested on: NCI-H226
NCI-H23 = tested on: NCI-H23
OVCAR-4 = tested on: OVCAR-4
RXF 393 = tested on: RXF 393
SK-MEL-2 = tested on: SK-MEL-2
SK-MEL-5 = tested on: SK-MEL-5
SK-OV-3 = tested on: SK-OV-3
SN12C = tested on: SN12C
UACC-257 = tested on: UACC-257
UACC-62 = tested on: UACC-62
UO-31 = tested on: UO-31

Measured: GI50

COC(=O)/C=C\C(C#N)(C#N)/N=C/c1ccccc1
inactive: A498 18.7 µM | ACHN 2.3 µM | COLO 205 1.62 µM | HCC 2998 19.4 µM | HCT-116 1.77 µM | HOP-92 1.55 µM | MCF7 2.09 µM | MDA-MB-231 15.6 µM | MDA-MB-435 2.33 µM | NCI-H226 9.55 µM | NCI-H23 7.35 µM | OVCAR-4 4.22 µM | RXF 393 1.94 µM | SK-MEL-2 16.7 µM | SK-MEL-5 13.5 µM | SK-OV-3 18.3 µM | SN12C 11.1 µM | UACC-257 5.36 µM | UACC-62 14.5 µM | UO-31 2.42 µM

O=C(CSc1nc2ccc(I)cc2c(=O)n1Cc1ccccc1)NNC(=O)c1ccccc1
inactive: A498 11.6 µM | ACHN 17.7 µM | COLO 205 18.9 µM | HCC 2998 33.8 µM | HCT-116 19.7 µM | HOP-92 8.24 µM | MCF7 9.82 µM | MDA-MB-231 10.5 µM | MDA-MB-435 35 µM | NCI-H226 3.78 µM | NCI-H23 17.6 µM | OVCAR-4 8.99 µM | RXF 393 4.73 µM | SK-MEL-2 6.08 µM | SK-MEL-5 10.3 µM | SK-OV-3 17.2 µM | SN12C 17.1 µM | UACC-257 18 µM | UACC-62 14.2 µM | UO-31 1.15 µM

COC1(OC)N=C(N)C2(C#N)C(C)CC(=O)N(N(C)C)C12C#N (stereo not drawn)
inactive: A498 > 100 µM | ACHN > 100 µM | COLO 205 > 100 µM | HCC 2998 > 100 µM | HCT-116 > 100 µM | HOP-92 > 100 µM | MCF7 > 100 µM | MDA-MB-231 > 100 µM | MDA-MB-435 > 100 µM | NCI-H226 > 100 µM | NCI-H23 > 100 µM | RXF 393 > 100 µM | SK-MEL-2 > 100 µM | SK-MEL-5 > 100 µM | SK-OV-3 > 100 µM | SN12C > 100 µM | UACC-257 > 100 µM | UACC-62 > 100 µM | UO-31 > 100 µM

Cc1cc(S(=O)(=O)Nc2nc(N)n(-c3cnc4ccccc4n3)n2)c(S)cc1Cl
inactive: A498 62.2 µM | ACHN > 100 µM | COLO 205 > 100 µM | HCC 2998 > 100 µM | HCT-116 > 100 µM | HOP-92 16.6 µM | MCF7 > 100 µM | MDA-MB-231 > 100 µM | MDA-MB-435 > 100 µM | NCI-H226 43.7 µM | OVCAR-4 > 100 µM | RXF 393 99.1 µM | SK-MEL-2 > 100 µM | SK-MEL-5 > 100 µM | SK-OV-3 85.7 µM | SN12C > 100 µM | UACC-257 > 100 µM | UACC-62 49.7 µM | UO-31 > 100 µM
